# From patent US4427587A, “Total synthesis of antitumor antibiotics BBM-2040A and BBM-2040B” (Bristol-Myers Company, priority 1982, dated 1984)
# Like-named read-outs stand apart in the source and are kept apart here.
# Tests used:
# lymphatic leukemia P388 = assay: antitumor activity against P388 leukemia in mice, second experiment (Table 7); assay type: in vivo, male BDF1 mice; conditions: QD 1→9; for Effect MST % T/C: ≥ 125 significant; for antitumor activity in second P388 experiment (in words): i.p., epimer: 1 mg/kg/day, the highest dose tested
# Protocol: In this experiment lymphatic leukemia P388 was implanted intraperitoneally into male BDF1 mice at an inoculum size of 10^6 cells per mouse. Test compounds were dissolved in 0.9% saline containing 10% dimethylsulfoxide. Graded doses of test compounds were administered to mice intraperitoneally 24 hours after the tumor implantation, and the treatment was continued once daily for 9 days.
# Tumor inoculum: 10^6 ascites cells implanted i.p.
# Treatment: QD 1→9, i.p.
# Evaluation: MST = median survival time
# Effect: % T/C = (MST treated/MST control) × 100
# Criteria: % T/C ≥ 125 considered as significant antitumor activity
# [1] = test system: lymphocytic leukemia P388; assay: antitumor activity against lymphocytic leukemia P388 in mice (Table 6); assay type: in vivo, mice (BDF1 strain); conditions: qd 1→9; for antitumor activity in P388 experiment (comparison): ip
# Protocol: The antitumor activity of BBM-2040A and B was determined in mice (BDF1 strain) against lymphocytic leukemia P388. Each mouse was inoculated intraperitoneally with 10^6 cells of tumor. Graded doses of test compounds were administered to mice intraperitoneally 24 hours after the tumor implantation. The treatments were given once daily for 9 days (qd 1→9 schedule). Neothramycin was comparatively tested as a reference compound.
# *ratio of median survival time of test and control animals
# **circle indicates significant antitumor effect.
# [2] = test system: gram-positive, gram-negative and acid-fast bacteria; assay: antibacterial activity / spectrum; assay type: cell-based; conditions: Streptococcus pyogenes, Micrococcus luteus, Micrococcus flavus and Mycobacterium strains
# Protocol: (§1) The minimum inhibitory concentration (MIC) of BBM-2040 was determined for a variety of gram-positive, gram-negative and acid-fast bacteria by the serial two-fold agar dilution method. Nutrient agar medium was used for gram-positive and gram-negative organisms and No. 1001 medium (3% glycerol, 0.3% sodium L-glutamate, 0.2% peptone, 0.31% Na2 HPO4, 0.1% KH2 PO4, 0.005% ammonium citrate, 0.001% MgSO4 and 1.5% agar) for acid-fast organisms.
# Escherichia coli Juhl = assay: MIC, serial two-fold agar dilution method; assay type: cell-based
# Protocol: as §1
# [3] = test system: Streptococcus pyogenes PCI 1001; assay: MIC, serial two-fold agar dilution method; assay type: cell-based; conditions: PCI1001
# Protocol: as §1
# [4] = test system: Bacillus subtilis PCI 219; assay: MIC, serial two-fold agar dilution method; assay type: cell-based; conditions: PCI219
# Protocol: as §1
# Escherichia coli NIHJ = assay: MIC, serial two-fold agar dilution method; assay type: cell-based
# Protocol: as §1
# Proteus vulgaris A9436 = assay: MIC, serial two-fold agar dilution method; assay type: cell-based
# Protocol: as §1
# [5] = test system: Klebsiella pneumoniae D-11; assay: MIC, serial two-fold agar dilution method; assay type: cell-based; conditions: D11
# Protocol: as §1
# [6] = test system: Mycobacterium smegmatis 607; assay: MIC, serial two-fold agar dilution method; assay type: cell-based; conditions: Mycolicibacterium smegmatis
# Protocol: as §1
# [7] = test system: Staphylococcus aureus Smith; assay: MIC, serial two-fold agar dilution method; assay type: cell-based
# Protocol: as §1
# [8] = test system: Streptococcus pyogenes A20201; assay: MIC, serial two-fold agar dilution method; assay type: cell-based
# Protocol: as §1
# [9] = test system: Staphylococcus aureus FDA 209P; assay: MIC, serial two-fold agar dilution method; assay type: cell-based; conditions: FDA209P
# Protocol: as §1
# Micrococcus flavus D12 = assay: MIC, serial two-fold agar dilution method; assay type: cell-based
# Protocol: as §1
# [10] = test system: Pseudomonas aeruginosa A9930; assay: MIC, serial two-fold agar dilution method; assay type: cell-based
# Protocol: as §1
# Mycobacterium phlei D88 = assay: MIC, serial two-fold agar dilution method; assay type: cell-based; conditions: Mycolicibacterium phlei
# Protocol: as §1
# [11] = intraperitoneal; reported value; cited from earlier work
# [12] = benzene, chloroform and n-hexane
# [13] = ethyl acetate, acetone and water
# [14] = methanol ethanol, n-butanol and pyridine
# [15] = Escherichia coli Juhl, read-out: MIC
# [16] = Streptococcus pyogenes PCI 1001, read-out: MIC
# [17] = Bacillus subtilis PCI 219, read-out: MIC
# [18] = Escherichia coli NIHJ, read-out: MIC
# [19] = Klebsiella pneumoniae D-11, read-out: MIC
# [20] = Mycobacterium smegmatis 607, No. 1001 medium, read-out: MIC
# [21] = Staphylococcus aureus Smith, read-out: MIC
# [22] = Staphylococcus aureus FDA 209P, read-out: MIC
# [23] = Mycobacterium phlei D88, No. 1001 medium, read-out: MIC
compound,measurement,setting,value
COc1cc2c(cc1O)N[C@H](OC)[C@@H]1C[C@@H](O)CN1C2=O [2β-Hydroxy epimer of BBM-2040 A],Average weight change,lymphatic leukemia P388; 0.03 mg/kg/day i.p.,+1.0 g
same,MST,lymphatic leukemia P388; 0.03 mg/kg/day i.p.,10.5 days
same,Survivors Day 5,lymphatic leukemia P388; 0.03 mg/kg/day i.p.,6/6
same,Survivors Day 22,lymphatic leukemia P388; 0.03 mg/kg/day i.p.,0/6
same,Effect MST % T/C,lymphatic leukemia P388; 0.03 mg/kg/day i.p.,88%
same,Average weight change,lymphatic leukemia P388; 0.1 mg/kg/day i.p.,+1.3 g
same,MST,lymphatic leukemia P388; 0.1 mg/kg/day i.p.,11.0 days
same,Survivors Day 5,lymphatic leukemia P388; 0.1 mg/kg/day i.p.,6/6
same,Survivors Day 22,lymphatic leukemia P388; 0.1 mg/kg/day i.p.,0/6
same,Effect MST % T/C,lymphatic leukemia P388; 0.1 mg/kg/day i.p.,92%
same,Average weight change,lymphatic leukemia P388; 0.3 mg/kg/day i.p.,+1.8 g
same,MST,lymphatic leukemia P388; 0.3 mg/kg/day i.p.,11.0 days
same,Survivors Day 5,lymphatic leukemia P388; 0.3 mg/kg/day i.p.,6/6
same,Survivors Day 22,lymphatic leukemia P388; 0.3 mg/kg/day i.p.,0/6
same,Effect MST % T/C,lymphatic leukemia P388; 0.3 mg/kg/day i.p.,92%
same,Average weight change,lymphatic leukemia P388; 1 mg/kg/day i.p.,+1.0 g
same,MST,lymphatic leukemia P388; 1 mg/kg/day i.p.,12.0 days
same,Survivors Day 5,lymphatic leukemia P388; 1 mg/kg/day i.p.,6/6
same,Survivors Day 22,lymphatic leukemia P388; 1 mg/kg/day i.p.,0/6
same,Effect MST % T/C,lymphatic leukemia P388; 1 mg/kg/day i.p.,100%
same,antitumor activity in second P388 experiment (in words),lymphatic leukemia P388,inactive
"COc1cc2c(cc1O)N[C@H](OC)[C@@H]1C[C@H](O)CN1C2=O [BBM-2040A, 2(S),11(R),11a(S)-1,2,3,10,11,11a-Hexahydro-2,8-dihydroxy-7,11-dimethoxy-5H-pyrrolo-[2,1-c][1,4]benzodiazepin-5-one]",T/C (%) in MST,[1]; 0.1 mg/kg/day ip,96%
same,T/C (%) in MST,[1]; 0.3 mg/kg/day ip,104%
same,antitumor activity in P388 experiment (comparison),[1],similarly active
same,solubility,solubility; [12],practically insoluble
same,solubility,solubility; [13],slightly soluble
same,solubility,solubility; [14],readily soluble
same,antibacterial activity,[2],weak antibacterial activity
same,MIC,Escherichia coli Juhl; [15],> 100 µg/mL
same,MIC,[3]; [16],50 µg/mL
same,MIC,[4]; [17],> 100 µg/mL
same,MIC,Escherichia coli NIHJ; [18],> 100 µg/mL
same,MIC,Proteus vulgaris A9436; read-out: MIC,> 100 µg/mL
same,MIC,[5]; [19],> 100 µg/mL
same,MIC,[6]; [20],100 µg/mL
same,MIC,[7]; [21],> 100 µg/mL
same,MIC,[8]; read-out: MIC,50 µg/mL
same,MIC,[9]; [22],> 100 µg/mL
same,MIC,Micrococcus flavus D12; read-out: MIC,50 µg/mL
same,MIC,[10]; read-out: MIC,> 100 µg/mL
same,MIC,Mycobacterium phlei D88; [23],100 µg/mL
same,Average weight change,lymphatic leukemia P388; 0.1 mg/kg/day i.p.,+1.5 g
same,MST,lymphatic leukemia P388; 0.1 mg/kg/day i.p.,12.0 days
same,Effect MST % T/C,lymphatic leukemia P388; 0.1 mg/kg/day i.p.,100%
same,Average weight change,lymphatic leukemia P388; 0.3 mg/kg/day i.p.,+1.3 g
same,MST,lymphatic leukemia P388; 0.3 mg/kg/day i.p.,14.0 days
same,Effect MST % T/C,lymphatic leukemia P388; 0.3 mg/kg/day i.p.,117%
same,MST,lymphatic leukemia P388; 1 mg/kg/day i.p.,16.0 days
same,Effect MST % T/C,lymphatic leukemia P388; 1 mg/kg/day i.p.,133%
same,Average weight change,lymphatic leukemia P388; 3 mg/kg/day i.p.,+0.5 g
same,MST,lymphatic leukemia P388; 3 mg/kg/day i.p.,17.0 days
same,Survivors Day 5,lymphatic leukemia P388; 3 mg/kg/day i.p.,6/6
same,Survivors Day 22,lymphatic leukemia P388; 3 mg/kg/day i.p.,0/6
same,Effect MST % T/C,lymphatic leukemia P388; 3 mg/kg/day i.p.,142%
same,Average weight change,lymphatic leukemia P388; 10 mg/kg/day i.p.,-2.2 g
same,MST,lymphatic leukemia P388; 10 mg/kg/day i.p.,19.5 days
same,Survivors Day 5,lymphatic leukemia P388; 10 mg/kg/day i.p.,6/6
same,Survivors Day 22,lymphatic leukemia P388; 10 mg/kg/day i.p.,1/6
same,Effect MST % T/C,lymphatic leukemia P388; 10 mg/kg/day i.p.,163%
same,antitumor activity in second P388 experiment (in words),lymphatic leukemia P388,similarly active
COc1cc2c(cc1O)N=C[C@@H]1C[C@H](O)CN1C2=O [BBM-2040B],T/C (%) in MST,[1]; 0.1 mg/kg/day ip,104%
same,T/C (%) in MST,[1]; 0.3 mg/kg/day ip,96%
same,T/C (%) in MST,[1]; 1 mg/kg/day ip,112%
same,antitumor activity in P388 experiment (comparison),[1],somewhat less active than BBM-2040A
same,solubility,solubility; [12],practically insoluble
same,solubility,solubility; [13],slightly soluble
same,solubility,solubility; [14],readily soluble
same,antibacterial activity,[2],weak antibacterial activity
same,MIC,Escherichia coli Juhl; [15],> 100 µg/mL
same,MIC,[3]; [16],100 µg/mL
same,MIC,[4]; [17],> 100 µg/mL
same,MIC,Escherichia coli NIHJ; [18],> 100 µg/mL
same,MIC,Proteus vulgaris A9436; read-out: MIC,> 100 µg/mL
same,MIC,[5]; [19],> 100 µg/mL
same,MIC,[6]; [20],100 µg/mL
same,MIC,[7]; [21],> 100 µg/mL
same,MIC,[8]; read-out: MIC,50 µg/mL
same,MIC,[9]; [22],> 100 µg/mL
same,MIC,Micrococcus flavus D12; read-out: MIC,50 µg/mL
same,MIC,[10]; read-out: MIC,> 100 µg/mL
same,MIC,Mycobacterium phlei D88; [23],100 µg/mL
COc1cc2c(cc1O)N=CC1CCC(O)N1C2=O (stereo not drawn) [Neothramycin],T/C (%) in MST,[1]; 0.03 mg/kg/day ip,96%
same,T/C (%) in MST,[1]; 0.1 mg/kg/day ip,104%
same,T/C (%) in MST,[1]; 0.3 mg/kg/day ip,112%
same,antitumor activity in P388 experiment (comparison),[1],similarly active
same,LD50,[11],20 to 30 mg/kg
same,MIC,Escherichia coli Juhl; Escherichia coli,> 100 µg/mL
same,MIC,[3]; Streptococcus pyogenes,100 µg/mL
same,MIC,[4]; Bacillus subtilis,50 µg/mL
same,MIC,Escherichia coli NIHJ; Escherichia coli,50 µg/mL
same,MIC,Proteus vulgaris A9436,100 µg/mL
same,MIC,[5]; Klebsiella pneumoniae,100 µg/mL
same,MIC,[6]; 607,> 100 µg/mL
same,MIC,[7]; Staphylococcus aureus,> 100 µg/mL
same,MIC,[8],50 µg/mL
same,MIC,[9]; Staphylococcus aureus,> 100 µg/mL
same,MIC,Micrococcus flavus D12,100 µg/mL
same,MIC,[10],> 100 µg/mL
same,MIC,Mycobacterium phlei D88; D88,> 100 µg/mL
same,Average weight change,lymphatic leukemia P388; 0.1 mg/kg/day i.p.,+1.0 g
same,MST,lymphatic leukemia P388; 0.1 mg/kg/day i.p.,13.0 days
same,Survivors Day 5,lymphatic leukemia P388; 0.1 mg/kg/day i.p.,6/6
same,Survivors Day 22,lymphatic leukemia P388; 0.1 mg/kg/day i.p.,0/6
same,Effect MST % T/C,lymphatic leukemia P388; 0.1 mg/kg/day i.p.,108%
same,Average weight change,lymphatic leukemia P388; 0.3 mg/kg/day i.p.,+0.8 g
same,MST,lymphatic leukemia P388; 0.3 mg/kg/day i.p.,14.5 days
same,Survivors Day 5,lymphatic leukemia P388; 0.3 mg/kg/day i.p.,6/6
same,Survivors Day 22,lymphatic leukemia P388; 0.3 mg/kg/day i.p.,0/6
same,Effect MST % T/C,lymphatic leukemia P388; 0.3 mg/kg/day i.p.,121%
same,Average weight change,lymphatic leukemia P388; 1 mg/kg/day i.p.,+0.5 g
same,MST,lymphatic leukemia P388; 1 mg/kg/day i.p.,17.0 days
same,Survivors Day 5,lymphatic leukemia P388; 1 mg/kg/day i.p.,6/6
same,Survivors Day 22,lymphatic leukemia P388; 1 mg/kg/day i.p.,0/6
same,Effect MST % T/C,lymphatic leukemia P388; 1 mg/kg/day i.p.,142%
same,Average weight change,lymphatic leukemia P388; 3 mg/kg/day i.p.,0.0 g
same,MST,lymphatic leukemia P388; 3 mg/kg/day i.p.,17.5 days
same,Survivors Day 5,lymphatic leukemia P388; 3 mg/kg/day i.p.,6/6
same,Survivors Day 22,lymphatic leukemia P388; 3 mg/kg/day i.p.,0/6
same,Effect MST % T/C,lymphatic leukemia P388; 3 mg/kg/day i.p.,146%
same,antitumor activity in second P388 experiment (in words),lymphatic leukemia P388,similarly active
